Test results taken from patent US9714229B2, “Crystal of tetracyclic compound” (Chugai Seiyaku Kabushiki Kaisha, priority 2014, dated 2017).

What was measured:
[1] = Investigation on transformation of crystal form of type II crystal due to humidity (powder X-ray diffraction); assay type: physicochemical
Protocol: For the type I, type II, and type III crystals of a monohydrochloride of 9-ethyl-6,6-dimethyl-8-(4-morpholin-4-yl-piperidin-1-yl)-11-oxo-6,11-dihydro-5H-benzo[b]carbazole-3-carbonitrile, the powder X-ray diffraction was measured under the following conditions. The measurement results for the type II crystal, the type III crystal, and the type I crystal are shown in FIGS. 1, 2, and 3. • Measuring apparatus: X'Pert-Pro MPD (manufactured by PANalytical HV) • Anticathode: Cu • Tube voltage: 45 kV • Tube current: 40 mA • Step width: 0.02 • Scan axis: 20 • Sampling time per: 43 seconds • Scan range: 3 to 40°
In order to investigate the transformation of the crystal form of the type II crystal of the monohydrochloride of 9-ethyl-6,6-dimethyl-8-(4-morpholin-4-yl-piperidin-1-yl)-11-oxo-6,11-dihydro-5H-benzo[b]carbazole-3-carbonitrile due to humidity, samples were placed in the following humidity conditions, and changes in crystal form were investigated using the powder X-ray diffraction.
Test Conditions 1 (Investigation on Transformation of Crystal form of Type II Crystal at Low Humidity)
• Amount of sample: About 17 mq • Temperature: Constant temperature of about 25° C. • Atmospheric gas: Dry nitrogen • Flow rate of atmospheric gas: 200 sccm (ml/min) • Mass change rate: 0.002 dm/dt • Relative humidity: Samples were placed at a relative humidity of 0% RH • Minimum waiting time: 10 min • Maximum waiting time: 1200 min. Test Conditions 2 (Iinvestigation on Transformation of Crystal Form of Type II Crystal at High Humidity) • Amount of sample: About 16 mg • Temperature: Constant temperature of about 25° C. • Atmospheric s: Dry nitrogen • Flow rate of atmospheric gas: 200 sccm (ml/min) • Mass change rate: 0.002 dm/dt (%/min) • Relative humidity: Samples were placed at a relative humidity of 70% RH • Minimum waiting time: 10 min • Maximum waiting time: 1200 min

[2] = Measurement of vapor sorption isotherm of type II crystal (DVS-1); assay type: physicochemical; details: for weight change rate (%): about 25° C.
Protocol: For the type II crystal of the monohydrochloride of 9-ethyl-6,6-dimethyl-8-(4-morpholin-4-yl-piperidin-1-yl)-11-oxo-6,11-dihydro-5H-benzo[b]carbazole-3-carbonitrile (about 5 mg), the vapor sorption isotherm was measured using a dynamic vapor sorption isotherm instrument: DVS-1 (Surface Measurement Systems) under the following conditions.
• Temperature: Constant temperature of about 25° C. • Atmospheric gas: Dry nitrogen • Flow rate of atmospheric gas: 200 sccm (ml/min) • Minimum waiting time: 10 min • Maximum waiting time: 1200 min • Mass change rate: 0.002 dm/dt (% min), where the mass change rate was 0.001 dm/dt (% min) at 5, 10, 15, 55, 60, and 65% RH.
Relative humidity: Relative humidity was varied to 0, 5, 10, 15, 20, 30, 40, 50, 55, 60, 65, 70, 80, 90, 80, 70, 65, 60, 55, 50, 40, 30, 20, 15, 10, 5, and 0% RR in this order. Such variation was regarded as one cycle, and three cycles were carried out. The weight change rate (%) of the type II crystal, when the temperature environment was varied from a relative humidity of 0% RH to 90% RH at about 25° C., was 3.7% in the range of a relative humidity from 0% RH to 15% RH, 0.05% in the range of a relative humidity from 15% RH to 55% RH, 11% in the range of a relative humidity from 55% RH to 65% RH, and 0.04% in the range of a relative humidity from 65% RH to 90% RH.

Compound: CCc1cc2c(cc1N1CCC(N3CCOCC3)CC1)C(C)(C)c1[nH]c3cc(C#N)ccc3c1C2=O [type II crystal, 9-ethyl-6,6-dimethyl-8-(4-morpholin-4-yl-piperidin-1-yl)-11-oxo-6,11-dihydro-5H-benzo[b]carbazole-3-carbonitrile]
- time after which crystal form had returned to the original form when allowed to stand in the air ([1]; after storage at 70% RH, powder X-ray diffraction measured over time): 4 h
- time to return to the original crystal form when allowed to stand in the air ([1]; after storage at low humidity (0% RH)): within one hour
- relative humidity at which the crystal absorbs moisture and transforms into another crystal form containing water of crystallization (high humidity environment) ([1]; inferred from the XRPD results): ≥ 65 RH
- relative humidity at which the crystal dehydrates to an anhydrate (low humidity environment) ([1]; inferred from the XRPD results): ≤ 15 % RH
- change in crystal form on storage at low humidity ([1]; relative humidity 0% RH, about 25° C., dry nitrogen, powder X-ray diffraction (FIG. 4)): transformation into another crystal form was caused
- change in crystal form on storage at high humidity ([1]; relative humidity 70% RH, about 25° C., powder X-ray diffraction (FIG. 5)): transformation into another crystal form was caused
- form inferred from molecular weight and mass change rate in high humidity environment ([2]; humidity of 65% RH or more): transformed into a monohydrochloride tetrahydrate
- weight change rate (%) ([2]; relative humidity from 0% RH to 15% RH): 3.7%
- weight change rate (%) ([2]; relative humidity from 15% RH to 55% RH): 0.05%
- weight change rate (%) ([2]; relative humidity from 55% RH to 65% RH): 11%
- weight change rate (%) ([2]; relative humidity from 65% RH to 90% RH): 0.04%
- form inferred from molecular weight and mass change rate on storage at low humidity ([2]; stored in an atmosphere of 0% RH): transformed into a monohydrochloride
